AUC and Vd data for two molecules are collected here from ChEMBL document CHEMBL4346764, “Design, synthesis, and evaluation of N-(4-(4-phenyl piperazin-1-yl)butyl)-4-(thiophen-3-yl)benzamides as selective dopamine D3 receptor ligands” (Bioorg Med Chem Lett, 2019).

Data set [1] is described as follows: AUC in Sprague-Dawley rat at 1 mg/kg, iv by LC/MS/MS analysis. Particulars: in vivo. The format is ADME, organism-based.
Data set [2] is described as follows: Volume of distribution at steady state in Sprague-Dawley rat at 1 mg/kg, iv by LC/MS/MS analysis. The format is ADME, organism-based. Particulars: in vivo, read-out: Vdss.

As usually defined, the AUC is concentration integrated over time. A low value points to less exposure. For `N#Cc1cccc(N2CCN(CCCCNC(=O)c3ccc(-c4ccsc4)cc3)CC2)c1`, the AUC in data set [1] turned out to be 220 ng·h/mL. Besides, the Vd in data set [2] turned out to be 28.6 L/kg.

Take `O=C(NCCCCN1CCN(c2cc(Cl)cc(Cl)c2)CC1)c1ccc(-c2ccsc2)cc1`: the AUC in data set [1] was 210 ng·h/mL. In addition, the Vd in data set [2] stood at 55.7 L/kg.
